Data from patent publication US20240424043A1, “COMPOSITION FOR PREVENTING OR TREATING MUSCLE DISEASE COMPRISING ARALIA ELATA EXTRACT” (KOREA INSTITUTE OF SCIENCE AND TECHNOLOGY, priority 2023, published 2024).

Key:
C2C12 myotubes [1] = assay: Oxidative stress (GSH content) and mitochondrial function in dexamethasone-treated myotubes; assay type: cell-based, mouse; conditions: 20 μM compound, 100 μM dexamethasone for 24 hours, FIG. 8; for glutathione (GSH) content: decreased by dexamethasone
Method: (§1) Cell culture and differentiation of myoblasts: C2C12 mouse (CRL1772; American type cell collection, USA) derived myoblasts were cultured in Dulbecco's Modified Eagle's Medium (DMEM) medium supplemented with 10 (v/v) % FBS, and after reaching 90% confluence, they were transferred to DMEM medium containing 2 (v/v) % horse serum and cultured for 7 days to differentiate into myotubes.
As in Example 4, C2C12 myoblasts were differentiated into myotubes, and then treated with 100 μM of dexamethasone for 24 hours to induce oxidative stress or mitochondrial dysfunction, and then treated with 20 μM of three compounds (catechol, 4-ethyl catechol, and methyl dihydroxycaffeate) isolated from the extract of Aralia Elata to determine their efficacy in ameliorating oxidative stress and mitochondrial dysfunction. […] Furthermore, the mitochondrial dysfunction induced by dexamethasone treatment was ameliorated by treatment with the present compound derived from the extract of Aralia Elata (FIG. 8).

[2] = system: Mstn, Myd1, Myog, and Myf5 gene expression in C2C12 mouse-derived myotubes; assay: RT-qPCR of muscle cell differentiation-related gene expression; assay type: cell-based; conditions: dexamethasone 10 μM, beta-actin control, FIG. 7; for Mstn gene expression (marker of muscle growth inhibition): increased by dexamethasone; for Myd1 gene expression (marker of myogenic differentiation) / Myf5 gene expression (marker of myogenic differentiation) / Myog gene expression (marker of myogenic differentiation): reduced by dexamethasone
Method: (§2) C2C12 mouse-derived myotubes treated with dexamethasone 10 μM were washed twice with PBS, and total RNA was extracted according to the user-recommended protocol of an RNA extraction kit (GeneAll RNA isolation kit, Seoul, South Korea). cDNA was synthesized from the extracted RNA and subjected to real time-quantitative polymerase chain reaction (RT-qPCR). POR analysis was performed according to the user-recommended cycling conditions of the analyzer (Applied Biosystems 7900 HT thermal cycler, Applied Biosystems). To determine the expression level of each mRNA, fold change values relative to the control were calculated using beta-actin as an endogenous control, and relative expression levels were compared.

[3] = system: Ppargc1a, UCp3, Tomm20, and Tfam gene expression in C2C12 mouse-derived endodermal cells; assay: RT-qPCR of exercise performance-related gene expression; assay type: cell-based; conditions: dexamethasone 10 μM, beta-actin control, reduced by dexamethasone, FIG. 9
Method: as §2, with “mouse-derived endodermal cells” for “mouse-derived myotubes”, “extracted RNA,” for “extracted RNA”, “(RT-qPCR). PCR” for “(RT-qPCR). POR”

[4] = system: Ppargc1a, UCp3, Tomm20, and Tfam gene expression in C2C12 mouse-derived cells; assay: as above; assay type: cell-based; conditions: dexamethasone 10 μM, beta-actin control, reduced by dexamethasone, FIG. 9
Method: as §2, with “mouse-derived endodermal cells” for “mouse-derived myotubes”, “extracted RNA,” for “extracted RNA”, “(RT-qPCR). PCR” for “(RT-qPCR). POR”

C2C12 myotubes [5] = assay: Myotube cell survival rate after dexamethasone-induced myoatrophy; assay type: cell-based, mouse; conditions: 20 μM compound; 100 μM dexamethasone for 24 hours; FIG. 5
Method: as §1
C2C12 myoblasts were differentiated into myotubes, and then treated with 100 μM of dexamethasone for 24 hours to induce myoatrophy, and 20 μM of 13 compounds isolated from the extract (see Table 1) to determine the effect of alleviating myoatrophy.

[6] = system: mice in which sarcopenia was induced by administration of Dexamethasone; assay: Grip strength and body weight in dexamethasone-induced sarcopenia mouse model; assay type: in vivo, C57BL/6J mice; conditions: compared to the group treated only with Dexamethasone (25 mg/kg i.p., 2 weeks); oral once daily 4 weeks; AE 10, 50 or 100 mg/kg, S-23 25 mg/kg; FIG. 2
Method: The present inventors created a sarcopenia mouse model to confirm the effectiveness of Aralia Elata extract prepared in the above-described preparation example to treat or improve sarcopenia, and measured grip strength using the control mouse and the sarcopenia mouse model.
The mice used to confirm the efficacy of Aralia Elata extract were prepared through the following process.
The test substance was prepared in the form of a liquid suspension using 0.5% CMC and administered for 4 weeks. To correct for the placebo effect of 0.5% CMC and the weight loss effect due to administration stress, 0.5% CMC was orally administered daily to the vehicle control group. Two weeks after administration of the test substance, the experimental group was administered intraperitoneal injection of Dexamethasone for two weeks to induce sarcopenia, and the normal control group was administered saline solution by intraperitoneal injection. All mice were provided with the same AlN76 diet (Research Diets), and the test substances were administered for an additional 2 weeks for a total of 4 weeks. The dark: light cycle was maintained at 12-hour:12-hour intervals, and water was allowed to be consumed freely. […] (Dex: Dexamethasone sarcopenia-inducing substance (25 mg/kg), AE: Aralia Elata extract (10, 50, or 100 mg/kg)).

SMILES | mitochondrial dysfunction induced by dexamethasone treatment (C2C12 myotubes [1]) | glutathione (GSH) content (C2C12 myotubes [1]) | Mstn gene expression (marker of muscle growth inhibition) [2] | Myd1 gene expression (marker of myogenic differentiation) [2] | Myf5 gene expression (marker of myogenic differentiation) [2] | Myog gene expression (marker of myogenic differentiation) [2] | Tfam gene expression [3] | Tomm20 gene expression [3] | UCp3 gene expression [3] | Ppargc1a gene expression [4] | viability of myotubes reduced by dexamethasone treatment (C2C12 myotubes [5]) | body weight [6] | grip strength [6]
CCc1ccc(O)c(O)c1 [4-ethyl catechol] | ameliorated | increased again | decreased | increased | increased | increased | increased | increased | increased | increased |  |  | 
Oc1ccccc1O [Compound 3, Catechol] | ameliorated | increased again | decreased | increased | increased | increased | increased | increased | increased | increased | significantly superior effect |  | 
CCc1ccc(O)c(O)c1 [Compound 4, 4-ethyl catechol] |  |  |  |  |  |  |  |  |  |  | significantly superior effect |  | 
C[C@](O)(COc1ccc(Cl)c(F)c1)C(=O)Nc1ccc(C#N)c(C(F)(F)F)c1 [Compound S-23] |  |  |  |  |  |  |  |  |  |  |  | increased | increased
